Data taken from patent US8999956B2, “N-[(het)arylalkyl)] pyrazole(thio)carboxamides and their heterosubstituted analogues” (Bayer Intellectual Property GmbH, priority 2010, dated 2015).
Read-outs that look alike come from different tables or passages of the source.

What was measured:
Cochliobolus miyabeanus = assay: In vivo protective test on Cochliobolus miyabeanus (rice); details: Table M, 250 ppm of active ingredient, evaluated 4 days after inoculation
[1] = tested on: Fusarium nivale (var. majus); assay: In vivo preventive test on Fusarium nivale (wheat); details: 500 ppm of active ingredient, evaluated 5 days after inoculation
Experimental: (§1) Solvent: 49 parts by weight of N,N-dimethylacetamide Emulsifier: 1 part by weight of alkylaryl polyglycol ether To produce a suitable preparation of active compound, 1 part by weight of active compound or active compound combination is mixed with the stated amounts of solvent and emulsifier, and the concentrate is diluted with water to the desired concentration. To test for preventive activity, young plants are sprayed with the preparation of active compound or active compound combination at the stated rate of application. After the spray coating has been dried, the plants are slightly injured by using a sandblast and afterwards they are sprayed with a conidia suspension of Fusarium nivale (var. majus).

Septoria tritici = assay: In vivo preventive test on Septoria tritici (wheat); details: 500 ppm of active ingredient, evaluated 21 days after inoculation
In short: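 Compound formulated in N,N-dimethylacetamide with alkylaryl polyglycol ether emulsifier and diluted in water to the stated rate. Young wheat plants sprayed preventively; after the deposit dried, they were inoculated with a Septoria tritici spore suspension.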

Puccinia triticina = assay: In vivo preventive test on Puccinia triticina (wheat)
Venturia inaequalis = assay: In vivo preventive test on Venturia inaequalis (apple scab); details: 100 ppm of active ingredient, evaluated 10 days after inoculation
In short: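 Young plants sprayed preventively at the stated application rate with compound dissolved in acetone/N,N-dimethylacetamide plus alkylaryl polyglycol ether emulsifier and diluted with water to the desired concentration.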

Aspergillus parasiticus = assay: microbe, parasite or virus in culture; assay type: cell-based
Pyrenophora teres = assay: In vivo preventive test on Pyrenophora teres (barley); details: 500 ppm of active ingredient, evaluated 7-9 days after inoculation
In short: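 Compound formulated in N,N-dimethylformamide with alkylaryl polyglycol ether emulsifier and diluted in water, then sprayed on young barley plants at the stated application rate. Plants inoculated one day later with aqueous Pyrenophora teres spore suspension, testing preventive protection.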

[2] = tested on: Blumeria graminis fsp. hordei; assay: In vivo preventive test on Blumeria graminis (barley); details: 500 ppm of active ingredient, evaluated 7 days after inoculation
Experimental: as §1, with “dusted” for “slightly injured by using a sandblast and afterwards they are sprayed”, “spores” for “a conidia suspension”, “Blumeria graminis fsp. hordei.” for “Fusarium nivale (var. majus).”

Sphaerotheca fuliginea = assay: In vivo preventive test on Sphaerotheca fuliginea (cucumber); details: 500 ppm of active ingredient, evaluated 7 days after inoculation
In short: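 Young cucumber plants sprayed with compound (in DMF with alkylarylpolyglycolether emulsifier, diluted in water) at the stated application rate. Inoculated one day later with aqueous Sphaerotheca fuliginea spore suspension. Plants then held in greenhouse at approximately 23° C and approximately 70% relative humidity.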

Phakopsora pachyrhizi = assay: In vivo protective test on Phakopsora pachyrhizi (soybeans); details: Table N, 250 ppm of active ingredient, evaluated 11 days after inoculation
Alternaria solani = assay: In vivo preventive test on Alternaria solani (tomato); details: 500 ppm of active ingredient, evaluated 7 days after inoculation
In short: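 Young tomato plants sprayed preventively with compound in DMF/alkylarylpolyglycolether emulsion diluted in water to the stated rate. Inoculation with aqueous Alternaria solani spore suspension one day after treatment.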

[3] = tested on: aflatoxines produced by Aspergillus parasiticus; assay: microbe, parasite or virus in culture; assay type: cell-based
[4] = log P by HPLC on reversed-phase column (EEC Directive 79/831 Annex V.A8); assay type: physicochemical
Experimental: In table 1, the log P values were determined in accordance with EEC Directive 79/831 Annex V.A8 by HPLC (High Performance Liquid Chromatography) on a reversed-phase column (C18), using the method described below: Temperature: 40° C.; […]

Pyricularia oryzae = details: in vivo
Uromyces appendiculatus = assay: In vivo preventive test on Uromyces appendiculatus (beans); details: 100 ppm of active ingredient, evaluated 10 days after inoculation
Experimental: Solvent: 24.5 parts by weight of acetone • 24.5 parts by weight of N,N-dimethylacetamide Emulsifier: 1 part by weight of alkylaryl polyglycol ether To produce a suitable preparation of active compound, 1 part by weight of active compound is mixed with the stated amounts of solvent and emulsifier, and the concentrate is diluted with water to the desired concentration. To test for preventive activity, young plants are sprayed with the preparation of active compound at the stated rate of application.

Leptosphaeria nodorum = assay: In vivo preventive test on Leptosphaeria nodorum (wheat); details: 500 ppm of active ingredient, evaluated 7-9 days after inoculation
In short: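 Compound formulated in N,N-dimethylacetamide with alkylaryl polyglycol ether emulsifier and diluted with water. Young wheat plants were sprayed at the stated application rate, then inoculated one day later with an aqueous spore suspension of L. nodorum.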

Botrytis cinerea = assay: In vivo preventive test on Botrytis cinerea (beans)
In short: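 Young bean plants sprayed preventively with compound in acetone/dimethylacetamide/emulsifier diluted in water; after drying, each leaf inoculated with 2 agar pieces bearing Botrytis cinerea. Kept dark at 20° C, 100% humidity; lesion size scored at 2 days as % efficacy (0% = untreated, 100% = no disease).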

[5] = Table K, 500 ppm of active ingredient, evaluated 8 days after inoculation
[6] = 500 ppm of active ingredient, lesion size 2 days after inoculation
[7] = Table L, 500 ppm of active ingredient, lesion size 2 days after inoculation

Structure (SMILES): CC(C)CC(C)C1CCCCC1NC(=O)c1c(C(F)F)nn(C)c1F (single isomer, unassigned) [Example 338]
- Efficacy (Cochliobolus miyabeanus): 96%
- Efficacy [1]: 100%
- Efficacy (Septoria tritici): 100%
- Efficacy (Puccinia triticina; [5]): 100%
- Efficacy (Venturia inaequalis): 100%
- % Inhibition of fungal growth at 50 μM (Aspergillus parasiticus): 100%
- Efficacy (Pyrenophora teres): 100%
- Efficacy [2]: 100%
- Efficacy (Sphaerotheca fuliginea): 100%
- Efficacy (Phakopsora pachyrhizi): 98%
- Efficacy (Alternaria solani): 100%
- % Inhibition of Aflatoxin at 50 μM [3]: 100%
- logP [4]: 4.73 isomer B
- Efficacy (Pyricularia oryzae): 97%

Structure (SMILES): Cn1nc(C(F)F)c(C(=O)N(CC2CCCCC2c2ccccc2)C2CC2)c1F (centres unmarked) [Example 240]
- Efficacy [1]: 71%
- Efficacy (Septoria tritici): 100%
- Efficacy (Puccinia triticina; [5]): 95%
- Efficacy (Venturia inaequalis): 100%
- Efficacy (Uromyces appendiculatus): 100%
- % Inhibition of fungal growth at 50 μM (Aspergillus parasiticus): 98%
- Efficacy (Pyrenophora teres): 100%
- Efficacy [2]: 100%
- Efficacy (Phakopsora pachyrhizi): 85%
- Efficacy (Alternaria solani): 100%
- Efficacy (Leptosphaeria nodorum): 70%
- % Inhibition of Aflatoxin at 50 μM [3]: 100%
- logP [4]: 4.31
- Efficacy (Botrytis cinerea; [6]): at least 95%
- Efficacy (Botrytis cinerea; Table L2, dose 500 ppm, comparison with des-fluoro analogues): 95%
- Efficacy (Botrytis cinerea; [7]): 95%

Structure (SMILES): Cn1nc(C(F)F)c(C(=O)N(C2CC2)C2CCCC(c3ccccc3)C2)c1F (centres unmarked) [Example 256]
- Efficacy [1]: 100%
- Efficacy (Septoria tritici): 100%
- Efficacy (Puccinia triticina; 500 ppm of active ingredient, evaluated 8 days after inoculation): at least 95%
- Efficacy (Puccinia triticina; Table K5, dose 500 ppm, comparison with des-fluoro analogues): 95%
- Efficacy (Puccinia triticina; [5]): 95%
- Efficacy (Venturia inaequalis): 100%
- Efficacy (Uromyces appendiculatus): 100%
- % Inhibition of fungal growth at 50 μM (Aspergillus parasiticus): 79%
- Efficacy (Pyrenophora teres): 100%
- Efficacy (Phakopsora pachyrhizi): 85%
- Efficacy (Alternaria solani): 93%
- Efficacy (Leptosphaeria nodorum): 95%
- % Inhibition of Aflatoxin at 50 μM [3]: 96%
- logP [4]: 4.01
- Efficacy (Botrytis cinerea; [6]): at least 90%
- Efficacy (Botrytis cinerea; Table L5, dose 500 ppm, comparison with des-fluoro analogues): 93%
- Efficacy (Botrytis cinerea; [7]): 93%

Structure (SMILES): CCCCC1CCCCC1NC(=O)c1c(C(F)F)nn(C)c1F (single isomer, unassigned) [Example 330]
- Efficacy (Cochliobolus miyabeanus): 85%
- Efficacy [1]: 100%
- Efficacy (Septoria tritici): 78%
- Efficacy (Puccinia triticina; [5]): 80%
- % Inhibition of fungal growth at 50 μM (Aspergillus parasiticus; 50 µM): 87%
- Efficacy (Pyrenophora teres): 100%
- Efficacy [2]: 100%
- Efficacy (Sphaerotheca fuliginea): 88%
- Efficacy (Alternaria solani): 95%
- % Inhibition of Aflatoxin at 50 μM [3]: 100%
- logP [4]: 4.06 isomer B
- Efficacy (Pyricularia oryzae): 80%

Structure (SMILES): CC(C)CC(C)C1CCCCC1NC(=O)c1c(C(F)F)nn(C)c1Cl (single isomer, unassigned) [Example 334]
- Efficacy [1]: 93%
- Efficacy (Septoria tritici): 100%
- Efficacy (Venturia inaequalis): 100%
- Efficacy (Uromyces appendiculatus): 100%
- % Inhibition of fungal growth at 50 μM (Aspergillus parasiticus; 50 µM): 90%
- Efficacy [2]: 90%
- Efficacy (Phakopsora pachyrhizi): 100%
- % Inhibition of Aflatoxin at 50 μM [3]: 100%
- logP [4]: 4.75 isomer A

Structure (SMILES): CCCCC1CCCCC1NC(=O)c1c(C(F)F)nn(C)c1F (single isomer, unassigned) [Example 329]
- Efficacy (Cochliobolus miyabeanus): 98%
- Efficacy [1]: 100%
- Efficacy (Septoria tritici): 100%
- Efficacy (Puccinia triticina; [5]): 100%
- Efficacy (Venturia inaequalis): 100%
- Efficacy (Uromyces appendiculatus): 100%
- % Inhibition of fungal growth at 50 μM (Aspergillus parasiticus; 50 µM): 97%
- Efficacy (Pyrenophora teres): 100%
- Efficacy [2]: 100%
- Efficacy (Sphaerotheca fuliginea): 100%
- Efficacy (Alternaria solani): 100%
- Efficacy (Leptosphaeria nodorum): 90%
- % Inhibition of Aflatoxin at 50 μM [3]: 100%
- logP [4]: 3.80 isomer A
- Efficacy (Botrytis cinerea; [7]): 99%
- Efficacy (Pyricularia oryzae): 98%

Structure (SMILES): CC(CCc1c(Cl)cc(Cl)cc1Cl)NC(=O)c1c(C(F)F)nn(C)c1Cl (centres unmarked) [Example 216]
- Efficacy (Cochliobolus miyabeanus): 90%
- Efficacy [1]: 93%
- Efficacy (Septoria tritici): 100%
- Efficacy (Puccinia triticina; [5]): 78%
- % Inhibition of fungal growth at 50 μM (Aspergillus parasiticus): 100%
- Efficacy (Pyrenophora teres): 100%
- Efficacy (Sphaerotheca fuliginea): 100%
- % Inhibition of Aflatoxin at 50 μM [3]: 100%
- logP [4]: 4.53
- Efficacy (Pyricularia oryzae): 95%

Structure (SMILES): CCCC1CCCCC1NC(=O)c1c(C(F)F)nn(C)c1F (single isomer, unassigned) [Example 344]
- Efficacy (Cochliobolus miyabeanus): 95%
- Efficacy [1]: 100%
- Efficacy (Septoria tritici): 94%
- Efficacy (Puccinia triticina; [5]): 100%
- % Inhibition of fungal growth at 50 μM (Aspergillus parasiticus; 50 µM): 89%
- Efficacy (Pyrenophora teres): 100%
- Efficacy [2]: 100%
- Efficacy (Sphaerotheca fuliginea): 100%
- Efficacy (Alternaria solani): 100%
- Efficacy (Leptosphaeria nodorum): 90%
- % Inhibition of Aflatoxin at 50 μM [3]: 100%
- logP [4]: 3.61 isomer B
- Efficacy (Botrytis cinerea; [7]): 100%
- Efficacy (Pyricularia oryzae): 95%

Structure (SMILES): CC(C)CC(C)C1CCCC1NC(=O)c1c(C(F)F)nn(C)c1F (mixture of isomers) [Example 315]
- Efficacy (Cochliobolus miyabeanus): 97%
- Efficacy [1]: 100%
- Efficacy (Septoria tritici): 100%
- Efficacy (Puccinia triticina; [5]): 95%
- Efficacy (Venturia inaequalis): 100%
- Efficacy (Uromyces appendiculatus): 100%
- % Inhibition of fungal growth at 50 μM (Aspergillus parasiticus; 50 µM): 100%
- Efficacy (Pyrenophora teres): 100%
- Efficacy [2]: 100%
- Efficacy (Sphaerotheca fuliginea): 71%
- Efficacy (Alternaria solani): 100%
- % Inhibition of Aflatoxin at 50 μM [3]: 100%
- Efficacy (Botrytis cinerea; [7]): 70%
- Efficacy (Pyricularia oryzae): 95%

Structure (SMILES): CON(C(=O)c1c(C(F)F)nn(C)c1F)C(C)CCc1c(Cl)cc(Cl)cc1Cl (centres unmarked) [Example 217]
- Efficacy (Cochliobolus miyabeanus): 98%
- Efficacy [1]: 100%
- Efficacy (Septoria tritici): 100%
- Efficacy (Puccinia triticina; [5]): 89%
- Efficacy (Venturia inaequalis): 100%
- % Inhibition of fungal growth at 50 μM (Aspergillus parasiticus): 100%
- Efficacy (Pyrenophora teres): 100%
- Efficacy [2]: 100%
- Efficacy (Sphaerotheca fuliginea): 100%
- Efficacy (Leptosphaeria nodorum): 78%
- % Inhibition of Aflatoxin at 50 μM [3]: 100%
- logP [4]: 4.77
- Efficacy (Pyricularia oryzae): 97%

Structure (SMILES): CCCCC1CCCC1NC(=O)c1c(C(F)F)nn(C)c1F (centres unmarked) [Example 306]
- Efficacy (Cochliobolus miyabeanus): 95%
- Efficacy [1]: 100%
- Efficacy (Puccinia triticina; [5]): 95%
- Efficacy (Venturia inaequalis): 99%
- Efficacy (Uromyces appendiculatus): 70%
- % Inhibition of fungal growth at 50 μM (Aspergillus parasiticus): 100%
- Efficacy (Pyrenophora teres): 100%
- Efficacy [2]: 100%
- Efficacy (Sphaerotheca fuliginea): 95%
- Efficacy (Alternaria solani): 100%
- % Inhibition of Aflatoxin at 50 μM [3]: 100%
- logP [4]: 3.59
- Efficacy (Botrytis cinerea; [7]): 94%
- Efficacy (Pyricularia oryzae): 95%

Structure (SMILES): CC(CCc1c(Cl)cc(Cl)cc1Cl)NC(=O)c1c(C(F)F)nn(C)c1F (centres unmarked) [Example 215]
- Efficacy (Cochliobolus miyabeanus): 98%
- Efficacy [1]: 71%
- Efficacy (Septoria tritici): 90%
- % Inhibition of fungal growth at 50 μM (Aspergillus parasiticus): 100%
- Efficacy (Pyrenophora teres): 100%
- Efficacy [2]: 100%
- Efficacy (Sphaerotheca fuliginea): 100%
- Efficacy (Alternaria solani): 95%
- % Inhibition of Aflatoxin at 50 μM [3]: 100%
- logP [4]: 4.29
- Efficacy (Pyricularia oryzae): 98%

Structure (SMILES): CC(C)CCC1CCCCC1NC(=O)c1c(C(F)F)nn(C)c1F (centres unmarked) [Example 333]
- Efficacy [1]: 100%
- Efficacy (Septoria tritici): 100%
- Efficacy (Puccinia triticina; [5]): 90%
- Efficacy (Venturia inaequalis): 99%
- % Inhibition of fungal growth at 50 μM (Aspergillus parasiticus): 92%
- Efficacy (Pyrenophora teres): 100%
- Efficacy [2]: 100%
- Efficacy (Sphaerotheca fuliginea): 100%
- Efficacy (Phakopsora pachyrhizi): 97%
- Efficacy (Alternaria solani): 100%
- Efficacy (Leptosphaeria nodorum): 80%
- % Inhibition of Aflatoxin at 50 μM [3]: 100%
- logP [4]: 4.22
